Experimental findings from ChEMBL document CHEMBL4041474, “Design, synthesis and pharmacological evaluation of 4,5-diarylisoxazols bearing amino acid residues within the 3-amido motif as potent heat shock protein 90 (Hsp90) inhibitors” (Eur J Med Chem, 2017) are described below.

For assay [1], the system named is NCI-H3122. Put plainly: Antiproliferative activity against human NCI-H3122 cells after 72 hrs by SRB assay. The class given is functional, cell-based. The note with it: NCI-H3122, 72 h. (In SRB staining, fixed cells bind dye roughly in proportion to their protein.)
Assay [2] concerns the target Heat shock protein HSP 90-alpha (Homo sapiens, UniProt P07900). Put plainly: Inhibition of fluorescein isothiocyanate labeled geldanamycin binding to recombinant Hsp90alpha (unknown origin) after 1 hr by fluorescence polarization assay. For orientation: In fluorescence polarisation assays a small probe gives low polarisation when free and higher when bound to something large.

The test system of assay [3] is NCI-H3122. Put plainly: Potency index, ratio of AUY922 IC50 to compound IC50 for human NCI-H3122 cells. The assay is classed as functional.
The subject of another assay is U-87 MG. Put plainly: Antiproliferative activity against human U87MG cells after 72 hrs by SRB assay. The assay is classed as functional, cell-based, U-87MG ATCC.
The test system of the next assay is HCT-116. Put plainly: Antiproliferative activity against human HCT116 cells after 72 hrs by SRB assay. The class given is functional, cell-based. The note with it: HCT-116, 72 h.
The test system of the next assay is NCI-N87. Put plainly: Antiproliferative activity against human NCI-N87 cells after 72 hrs by SRB assay. The class given is functional, cell-based. The note with it: NCI-N87, 72 h.
Assay [4] deals with T1, Heat shock protein HSP90 (Homo sapiens) (UniProt P07900+P08238). The note with it: 11.1 to 100 nM.
Description: Inhibition of Hsp90 in human NCI-H3122 cells assessed as upregulation of Hsp70 at 11.1 to 100 nM after 24 hrs by Western blot analysis
For the next assay, the system named is MDA-MB-231. Put plainly: Antiproliferative activity against human MDA-MB-231 cells after 72 hrs by SRB assay. The class given is functional, cell-based. The note with it: MDA-MB-231, 72 h.
Assay [5] has as its target T1, Heat shock protein HSP90 (Homo sapiens). The note with it: 11.1 to 100 nM. The source holds these as a separate data set.
Description: Inhibition of Hsp90 in human NCI-H3122 cells assessed as decrease in phosphorylation of ERK1/2 at 11.1 to 100 nM after 24 hrs by Western blot analysis
Assay [6] has the same target. The note with it: 100 nM.
Description: Inhibition of Hsp90 in human NCI-H3122 cells assessed as degradation of EML4-ALK fusion protein at 100 nM after 24 hrs by Western blot analysis
The subject of the next assay is BT-474. Put plainly: Antiproliferative activity against human BT474 cells after 72 hrs by SRB assay. The class given is functional, cell-based. The note with it: BT-474, 72 h.
The target in assay [7] is T1, Heat shock protein HSP90 (Homo sapiens). The note with it: 11.1 to 100 nM. This is another data set of the same source.
Description: Inhibition of Hsp90 in human NCI-H3122 cells assessed as decrease in phosphorylation of AKT at Ser473 at 11.1 to 100 nM after 24 hrs by Western blot analysis
A further assay relates to DU-145. Put plainly: Antiproliferative activity against human DU145 cells after 72 hrs by SRB assay. The assay is classed as functional, cell-based. The note with it: DU-145, 72 h.
Another assay relates to NCI-H460. Put plainly: Antiproliferative activity against human NCI-H460 cells after 72 hrs by SRB assay. The assay is classed as functional, cell-based. The note with it: NCI-H460, 72 h.
The test system of the next assay is A549. Put plainly: Antiproliferative activity against human A549 cells after 72 hrs by SRB assay. The note with it: A549, 72 h. The assay is classed as functional, cell-based.

Calls of active or inactive are those of the source. The rule behind the calls is not given here.

Broadly, the IC50 is the midpoint of a concentration-inhibition curve. Turning to `CC(C)c1cc(-c2onc(C(=O)N[C@@H](C(=O)N3CC(F)(F)C3)C(C)C)c2-c2ccc(CN3CCOCC3)cc2)c(O)cc1O`, the IC50 in the assay with NCI-H3122 [1] was determined as 37 nM; in assay [2] it was 39 nM.

For the compound `CCNC(=O)[C@H](NC(=O)c1noc(-c2cc(C(C)C)c(O)cc2O)c1-c1ccc(CN2CCOCC2)cc1)C(C)C`, the results for the IC50 (in the assay with NCI-H3122 [1]; in assay [2]) were 34 nM and 28 nM, respectively.

As to `COC(=O)[C@@H](Cc1c[nH]c2ccccc12)NC(=O)c1noc(-c2cc(C(C)C)c(O)cc2O)c1-c1ccc(CN2CCOCC2)cc1`, the IC50 with NCI-H3122 [1] amounted to 149 nM; in [2], 368 nM.

Turning to `CCNC(=O)c1noc(-c2cc(C(C)C)c(O)cc2O)c1-c1ccc(CN2CCOCC2)cc1` [LUMINESPIB], the IC50 with NCI-H3122 [1] amounted to 14 nM.

As for `COC(=O)[C@@H](CC(C)C)NC(=O)c1noc(-c2cc(C(C)C)c(O)cc2O)c1-c1ccc(CN2CCOCC2)cc1`, the 50% inhibitory concentration (IC50) amounted to 19 nM with NCI-H3122 [1] and 151 nM in assay [2].

As to `COC(=O)[C@@H](CC(C)C)NC(=O)[C@H](NC(=O)c1noc(-c2cc(C(C)C)c(O)cc2O)c1-c1ccc(CN2CCOCC2)cc1)C(C)C`, the IC50 was more than 10000 nM with NCI-H3122 [1] and 285 nM in assay [2].

Take `COC(=O)[C@@H](Cc1ccccc1)NC(=O)[C@H](NC(=O)c1noc(-c2cc(C(C)C)c(O)cc2O)c1-c1ccc(CN2CCOCC2)cc1)C(C)C`: the IC50 was 79 nM in the assay on NCI-H3122 [1] and 397 nM in assay [2].

Turning to `COC(=O)[C@H](NC(=O)c1noc(-c2cc(C(C)C)c(O)cc2O)c1-c1ccc(CN2CCOCC2)cc1)C(C)C`, the values for the IC50 (in the assay on NCI-H3122 [1]; in assay [2]) were 28 nM and 79 nM, respectively.

Consider `COC(=O)[C@@H](Cc1ccccc1)NC(=O)c1cnc(N2CCC(CNC(=O)c3noc(-c4cc(C(C)C)c(O)cc4O)c3-c3ccc(CN4CCOCC4)cc3)CC2)nc1`, for which the IC50 with NCI-H3122 [1] was 1130 nM; in [2] it was 749 nM.

`COC(=O)[C@@H](CO)NC(=O)c1noc(-c2cc(C(C)C)c(O)cc2O)c1-c1ccc(CN2CCOCC2)cc1`: the IC50 turned out to be 227 nM with NCI-H3122 [1] and 72 nM in [2].

`COC(=O)[C@H](NC(=O)CCCCCNC(=O)c1noc(-c2cc(C(C)C)c(O)cc2O)c1-c1ccc(CN2CCOCC2)cc1)C(C)C`: the IC50 with NCI-H3122 [1] was 65 nM; in [2], 98 nM.

With `COC(=O)[C@@H](Cc1ccccc1)NC(=O)COCCOCCOCCNC(=O)c1noc(-c2cc(C(C)C)c(O)cc2O)c1-c1ccc(CN2CCOCC2)cc1`, the IC50 came to 40 nM in the assay with NCI-H3122 [1] and 122 nM in assay [2].

`CC(C)c1cc(-c2onc(C(=O)N[C@@H](C(=O)OC(C)(C)C)C(C)C)c2-c2ccc(CN3CCOCC3)cc2)c(O)cc1O`: the IC50 in the assay with NCI-H3122 [1] is less than 1 nM; in assay [2] it was 112 nM.

For `CC(C)c1cc(-c2onc(C(=O)N[C@@H](C(=O)N3CCN(C)CC3)C(C)C)c2-c2ccc(CN3CCOCC3)cc2)c(O)cc1O`, the IC50 was 149 nM with NCI-H3122 [1] and 429 nM in assay [2].

In the case of `COC(=O)[C@@H](Cc1ccccc1)NC(=O)CCCCCNC(=O)c1noc(-c2cc(C(C)C)c(O)cc2O)c1-c1ccc(CN2CCOCC2)cc1`, the IC50 with NCI-H3122 [1] is 90 nM; in assay [2], 307 nM.

Turning to `COC(=O)[C@@H](CC1CCCCC1)NC(=O)c1noc(-c2cc(C(C)C)c(O)cc2O)c1-c1ccc(CN2CCOCC2)cc1`, the IC50 with NCI-H3122 [1] is more than 10000 nM; in [2], 836 nM.

Take `COC(=O)[C@H](NC(=O)COCCOCCNC(=O)c1noc(-c2cc(C(C)C)c(O)cc2O)c1-c1ccc(CN2CCOCC2)cc1)C(C)C`: the IC50 in the assay with NCI-H3122 [1] was found to be 90 nM; in [2], 154 nM.

On to `COC(=O)[C@@H](Cc1ccccc1)NC(=O)c1noc(-c2cc(C(C)C)c(O)cc2O)c1-c1ccc(CN2CCOCC2)cc1`, for which the values for the IC50 (with NCI-H3122 [1]; in [2]) were 77 nM and 260 nM, respectively.

With `COC(=O)[C@H](NC(=O)c1cnc(N2CCN(C(=O)c3noc(-c4cc(C(C)C)c(O)cc4O)c3-c3ccc(CN4CCOCC4)cc3)CC2)nc1)C(C)C`, the IC50 came to 135 nM in the assay on NCI-H3122 [1] and 473 nM in assay [2].

In the case of `CC(C)c1cc(-c2onc(C(=O)N[C@@H](C(=O)NC3(CO)CC3)C(C)C)c2-c2ccc(CN3CCOCC3)cc2)c(O)cc1O`, the IC50 was 81 nM in the assay with NCI-H3122 [1] and 106 nM in assay [2].

With `COC(=O)[C@H](NC(=O)c1cnc(N2CCC(CNC(=O)c3noc(-c4cc(C(C)C)c(O)cc4O)c3-c3ccc(CN4CCOCC4)cc3)CC2)nc1)C(C)C`, the IC50 with NCI-H3122 [1] worked out at 278 nM; in assay [2], 407 nM.

With `COC(=O)[C@H](CCCCNC(=O)OCc1ccccc1)NC(=O)c1noc(-c2cc(C(C)C)c(O)cc2O)c1-c1ccc(CN2CCOCC2)cc1`, the IC50 was 4470 nM in the assay on NCI-H3122 [1] and 514 nM in [2].

With `COC(=O)[C@H](NC(=O)[C@H](NC(=O)[C@H](NC(=O)[C@H](NC(=O)c1noc(-c2cc(C(C)C)c(O)cc2O)c1-c1ccc(CN2CCOCC2)cc1)C(C)C)C(C)C)C(C)C)C(C)C`, the 50% inhibitory concentration (IC50) in the assay with NCI-H3122 [1] was found to be 638 nM; in assay [2], 528 nM.

Consider `CCOC(=O)[C@H](NC(=O)c1noc(-c2cc(C(C)C)c(O)cc2O)c1-c1ccc(CN2CCOCC2)cc1)C(C)C`, for which the IC50 in the assay with NCI-H3122 [1] was 2 nM; in [2], 189 nM. The “Ratio IC50” value with NCI-H3122 [3] turned out to be 10.

As for `COC(=O)[C@@H](Cc1ccccc1)NC(=O)COCCOCCNC(=O)c1noc(-c2cc(C(C)C)c(O)cc2O)c1-c1ccc(CN2CCOCC2)cc1`, the IC50 in the assay with NCI-H3122 [1] is 1530 nM; in assay [2] it was more than 1000 nM.

Regarding `COC(=O)[C@H](NC(=O)COCCOCCOCCNC(=O)c1noc(-c2cc(C(C)C)c(O)cc2O)c1-c1ccc(CN2CCOCC2)cc1)C(C)C`, the IC50 is 109 nM in the assay on U-87 MG; 116 nM in the assay with HCT-116; 564 nM in the assay on NCI-N87; 130 nM in the assay with MDA-MB-231; 57 nM in the assay with BT-474; 239 nM in the assay with DU-145. The IC50 in the assay with NCI-H460 amounted to 247 nM; in the assay with NCI-H3122 [1] it was 42 nM; in assay [2], 14 nM; in the assay with A549, 351 nM. The inhibition result in assay [4], in assay [5], in assay [6] and in assay [7] was “Active” each time.

In the case of `COC(=O)[C@H](NC(=O)[C@H](NC(=O)c1noc(-c2cc(C(C)C)c(O)cc2O)c1-c1ccc(CN2CCOCC2)cc1)C(C)C)C(C)C`, the IC50 in the assay with NCI-H3122 [1] is more than 10000 nM; in [2], 206 nM.

Take `CC(C)c1cc(-c2onc(C(=O)N[C@@H](C(=O)NCCN3CCOCC3)C(C)C)c2-c2ccc(CN3CCOCC3)cc2)c(O)cc1O`: the IC50 in the assay on NCI-H3122 [1] is 139 nM; in [2], 206 nM.

`CNC(=O)[C@H](NC(=O)c1noc(-c2cc(C(C)C)c(O)cc2O)c1-c1ccc(CN2CCOCC2)cc1)C(C)C`: the IC50 with NCI-H3122 [1] is 39 nM; in assay [2], 21 nM.

For the compound `COC(=O)[C@@H](Cc1ccccc1)NC(=O)c1cnc(N2CCN(C(=O)c3noc(-c4cc(C(C)C)c(O)cc4O)c3-c3ccc(CN4CCOCC4)cc3)CC2)nc1`, the IC50 with NCI-H3122 [1] was 164 nM; in assay [2] it was more than 1000 nM.

Turning to `COC(=O)[C@H](NC(=O)[C@H](NC(=O)C(NC(=O)c1noc(-c2cc(C(C)C)c(O)cc2O)c1-c1ccc(CN2CCOCC2)cc1)C(C)C)C(C)C)C(C)C` (single isomer, unassigned), the results for the IC50 (with NCI-H3122 [1]; in assay [2]) were 34 nM and 259 nM, respectively.
